Reference: patent US20090281111A1 (Fabre-Kramer Pharmaceuticals, Inc., priority 2008, published 2009)

What was measured:
5-HT7 receptor = 5-HT7 receptor (Homo sapiens, UniProt P34969); conditions: compared with 3-OH gepirone; cited from earlier work
5-HT2A receptor = 5-HT2A receptor (Homo sapiens, UniProt P28223); conditions: compared with 3-OH gepirone; cited from earlier work
[1] = cited from earlier work; for half-life: in vivo
Alpha 2C receptor = target: T1, Alpha 2C receptor (Homo sapiens, UniProt P18825); conditions: cited from earlier work
T1 sequence (P18825 1-462): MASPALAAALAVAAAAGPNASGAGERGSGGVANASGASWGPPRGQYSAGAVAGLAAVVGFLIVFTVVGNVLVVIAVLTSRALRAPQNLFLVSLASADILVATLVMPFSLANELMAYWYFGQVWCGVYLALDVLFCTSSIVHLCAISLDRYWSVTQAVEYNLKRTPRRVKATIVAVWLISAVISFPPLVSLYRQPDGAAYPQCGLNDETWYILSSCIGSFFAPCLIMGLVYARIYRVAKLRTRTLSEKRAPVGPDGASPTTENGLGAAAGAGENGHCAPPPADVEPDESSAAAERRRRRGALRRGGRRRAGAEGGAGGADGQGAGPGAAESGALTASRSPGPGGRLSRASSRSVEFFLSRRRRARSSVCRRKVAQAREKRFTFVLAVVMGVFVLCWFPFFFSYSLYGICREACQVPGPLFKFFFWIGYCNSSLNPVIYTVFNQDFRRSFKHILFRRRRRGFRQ

[2] = 3-OH gepirone concentrations in plasma after administration of gepirone; assay type: in vivo; conditions: human subjects administered a dose of gepirone, FIG. 2
Description: “Time (H)” represents time after administration.
Each sample corresponds to a 0.5 ml plasma sample, extracted with 6 ml of (2:1) (v/v) hexane:chloroform for 1 hour. After separation by centrifuge, the organic layer is transferred to a 10 ml conical tube and 90 ul of 1% formic acid is added. The tube is vortexed for 10 minutes and centrifuged for 5 minutes. About 80 ul of the formic acid layer is transferred into injection vials for HPLC/MS analysis.

[3] = test system: alpha-adrenergic receptors; conditions: Alpha 2A, Alpha 2B, Alpha 2C tested; cited from earlier work
5-HT1A receptor = target: T2, 5-HT1A receptor (Homo sapiens, UniProt P08908); conditions: cited from earlier work
T2 sequence (P08908 1-422): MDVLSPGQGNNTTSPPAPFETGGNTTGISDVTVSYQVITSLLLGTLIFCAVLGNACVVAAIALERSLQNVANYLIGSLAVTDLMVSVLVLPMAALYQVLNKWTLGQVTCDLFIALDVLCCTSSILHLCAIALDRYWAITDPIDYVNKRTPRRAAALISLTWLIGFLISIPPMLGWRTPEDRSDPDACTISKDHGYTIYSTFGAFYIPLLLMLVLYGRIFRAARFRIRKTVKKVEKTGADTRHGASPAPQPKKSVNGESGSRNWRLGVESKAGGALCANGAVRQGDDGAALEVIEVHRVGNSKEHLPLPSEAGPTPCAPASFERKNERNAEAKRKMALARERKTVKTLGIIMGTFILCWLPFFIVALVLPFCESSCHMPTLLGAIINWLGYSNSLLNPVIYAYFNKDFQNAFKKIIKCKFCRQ

dopaminergic receptors = conditions: cited from earlier work

5-HT7 receptor, sequence (P34969 whole entry): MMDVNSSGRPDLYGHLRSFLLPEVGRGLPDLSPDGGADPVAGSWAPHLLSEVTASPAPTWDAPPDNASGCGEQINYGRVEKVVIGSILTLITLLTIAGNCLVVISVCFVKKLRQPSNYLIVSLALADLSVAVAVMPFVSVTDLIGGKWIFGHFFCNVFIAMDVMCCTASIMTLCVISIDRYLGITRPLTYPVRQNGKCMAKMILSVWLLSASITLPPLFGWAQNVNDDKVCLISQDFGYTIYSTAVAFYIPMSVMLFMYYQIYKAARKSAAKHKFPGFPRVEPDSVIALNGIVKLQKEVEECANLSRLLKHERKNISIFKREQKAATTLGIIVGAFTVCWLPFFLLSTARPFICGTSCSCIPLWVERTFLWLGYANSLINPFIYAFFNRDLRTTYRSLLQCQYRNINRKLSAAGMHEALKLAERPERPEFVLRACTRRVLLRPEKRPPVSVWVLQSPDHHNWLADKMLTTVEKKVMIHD
5-HT2A receptor, sequence (P28223 whole entry): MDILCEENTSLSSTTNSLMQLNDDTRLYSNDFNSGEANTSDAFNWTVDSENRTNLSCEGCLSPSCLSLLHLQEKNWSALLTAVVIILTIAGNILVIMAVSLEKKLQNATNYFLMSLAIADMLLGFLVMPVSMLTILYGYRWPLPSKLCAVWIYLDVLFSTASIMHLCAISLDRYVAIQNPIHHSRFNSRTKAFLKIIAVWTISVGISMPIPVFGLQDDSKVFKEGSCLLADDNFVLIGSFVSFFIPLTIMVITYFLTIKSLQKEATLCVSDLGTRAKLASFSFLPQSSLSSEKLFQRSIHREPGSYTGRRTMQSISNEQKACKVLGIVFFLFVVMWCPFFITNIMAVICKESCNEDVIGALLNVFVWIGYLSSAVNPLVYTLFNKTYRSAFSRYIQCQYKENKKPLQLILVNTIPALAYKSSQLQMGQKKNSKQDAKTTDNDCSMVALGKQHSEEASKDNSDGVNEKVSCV

Compound	interaction with the 5-HT7 receptor (5-HT7 receptor)	interaction with the 5-HT2A receptor (5-HT2A receptor)	bioavailability ([1]; delivered orally)	half-life [1]	binding at the Alpha 2C receptor (Alpha 2C receptor)	plasma levels of 3-OH gepirone over time [2]	affinity at alpha-adrenergic receptors [3]	selectivity among the serotonergic receptor subtypes (5-HT1A receptor)	dopaminergic binding (dopaminergic receptors)
CC1(C)CC(=O)N(CCCCN2CCN(c3ncccn3)CC2)C(=O)C1 [gepirone, 4-dimethyl-1-[4-[4-(2-pyrimidinyl)-1-piperazinyl]butyl]-2,6-piperidinedione]	much more specifically and at lower concentrations than does 3-OH gepirone	much more specifically and at lower concentrations than does 3-OH gepirone	14-18%	very short					
O=C1CC2(CCCC2)CC(=O)N1CCCCN1CCN(c2ncccn2)CC1 [buspirone]	much more specifically and at lower concentrations than does 3-OH gepirone			very short					
CC1(C)CC(=O)N(CCCCN2CCN(c3ncccn3)CC2)C(=O)C1O (centres unmarked) [3-OH gepirone, 4,4,-dimethyl-3-hydroxy-1-[4-[4-(2-pyrimidinyl)-1-piperazinyl]butyl]-2,6-piperidinedione]					weak binding	available quickly and persists in the plasma for extended periods of time	did not display significant affinity	highly selective for the 5-HT1A receptor	insignificant dopaminergic binding
